Key:
MV4-11 cells = test: MV4-11 cellular proliferative assay, Assay Format A (CellTiter-Glo, 120 hours); assay type: cell-based; conditions: Homo sapiens
Description: An MV4-11 proliferation assay was used to test the ability of compounds to reduce cell viability. MV4-11 cells (ATCC #CRL9591) were grown in IMDM medium (11510596, Gibco) supplemented with 10% fetal bovine serum (F7524, Gibco) and 1% Penicillin/Streptomycin (15140-122, Gibco) at 37° C. with 5% CO2. Cells were seeded in 384-well Elplasia plates (4447, Corning) at a density of 50 cells/well and treated with vehicle (DMSO) or compounds (10 serial semi-log dilutions, 30 μM as top concentration).
After 120 hours of treatment, cells were incubated for 10 min at RT with the CellTiter-Glo (CTG) reagent (G7571, Promega). Measurement of the luminescence signal was performed on a microplate reader (Ensight, PerkinElmer). CTG reagent measures the amount of ATP, which is directly proportional to the number of cells, to determine the number of viable cells in culture.
The data were analysed as follows:
where x is the measured raw signal value of a well, (cr) is the median of the measured signal values for the Central Reference (DMSO) wells on a plate, (sr) is the median of the measured signal values for the Scale Reference (reference compound) wells on a plate.
where the experimental set-up assumes the Hill parameters in certain ranges: S0~Central Reference (CR) from normalization (=Bottom), Sinf~Scale Reference (SR) from normalization (=Top), nHill~1, AC50~within the measured concentration range.

MLLT1 = target: T1, MLLT1 (Homo sapiens, UniProt Q03111); test: MLLT1 degradation assay in MV4-11 cells (JESS chemiluminescent detection), three concentrations, 24 h; assay type: cell-based; conditions: with respect to DMSO control
T1 construct: host or cells: MV4-11
T1 sequence (Q03111 1-559): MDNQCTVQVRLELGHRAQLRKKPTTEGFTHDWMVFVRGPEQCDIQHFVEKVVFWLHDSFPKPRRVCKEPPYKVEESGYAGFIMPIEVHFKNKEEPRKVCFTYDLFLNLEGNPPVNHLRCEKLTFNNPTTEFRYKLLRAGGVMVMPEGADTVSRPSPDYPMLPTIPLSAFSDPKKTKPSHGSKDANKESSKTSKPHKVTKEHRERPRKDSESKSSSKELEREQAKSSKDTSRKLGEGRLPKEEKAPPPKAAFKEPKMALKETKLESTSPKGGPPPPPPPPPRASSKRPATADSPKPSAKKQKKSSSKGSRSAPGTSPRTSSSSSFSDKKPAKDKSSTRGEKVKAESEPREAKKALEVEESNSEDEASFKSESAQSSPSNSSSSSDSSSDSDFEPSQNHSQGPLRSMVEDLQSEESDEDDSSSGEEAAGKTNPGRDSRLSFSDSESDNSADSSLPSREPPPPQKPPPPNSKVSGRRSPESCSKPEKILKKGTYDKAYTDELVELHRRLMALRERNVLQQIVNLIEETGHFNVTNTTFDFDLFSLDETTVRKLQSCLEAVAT
In short: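 Read-out is % MLLT1 degradation versus DMSO, from band peak areas on a JESS chemiluminescent system. Cells (MV4-11) were exposed for 24 h at 37° C to three compound levels, 10, 100 and 1000 nM, in 0.1% DMSO.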

SMILES	IC50 (MV4-11 cells) [nM]	MLLT1% Degradation @ 0.1 μM (MLLT1)	MLLT1% Degradation @ 1 μM (MLLT1)	MLLT1% Degradation @ 0.01 μM (MLLT1)
CN1CCC[C@@H]1c1cc2cnc(NC(=O)CCCCC3CCN(c4cccc5c4C(=O)N(C4CCC(=O)NC4=O)C5=O)CC3)cc2[nH]1 (stereo partly drawn) [Example 42, 5-(1-(2-(2,6-Dioxopiperidin-3-yl)-1,3-dioxoisoindolin-4-yl)piperidin-4-yl)-N-(2-((R)-1-methylpyrrolidin-2-yl)-1H-pyrrolo[3,2-c]pyridin-6-yl)pentanamide]	≤ 100	B (Category B: 50% ≤ B < 75% degradation)	B (Category B: 50% ≤ B < 75% degradation)	–
C[C@@H](C#Cc1cccc2c1CN(C1CCC(=O)NC1=O)C2=O)Oc1ccc(C(=O)Nc2cc3[nH]c([C@H]4CCCN4C)cc3cn2)cc1 (stereo partly drawn) [Example 24, 4-(((2S)-4-(2-(2,6-dioxopiperidin-3-yl)-1-oxoisoindolin-4-yl)but-3-yn-2-yl)oxy)-N-(2-((R)-1-methylpyrrolidin-2-yl)-1H-pyrrolo[3,2-c]pyridin-6-yl)benzamide]	≤ 100	A (Category A: A ≥ 75% degradation)	A (Category A: A ≥ 75% degradation)	A (Category A: A ≥ 75% degradation)
CN1CCC[C@@H]1c1cc2cnc(NC(=O)c3ccc(OCCCC#Cc4cccc5c4CN(C4CCC(=O)NC4=O)C5=O)cc3)cc2[nH]1 (stereo partly drawn) [Example 56, 4-((5-(2-(2,6-dioxopiperidin-3-yl)-1-oxoisoindolin-4-yl)pent-4-yn-1-yl)oxy)-N-(2-((R)-1-methylpyrrolidin-2-yl)-1H-pyrrolo[3,2-c]pyridin-6-yl)benzamide]	≤ 100	A (Category A: A ≥ 75% degradation)	A (Category A: A ≥ 75% degradation)	A (Category A: A ≥ 75% degradation)
CN1CCC[C@@H]1c1cc2cnc(NC(=O)COCCCCNc3cccc4c3C(=O)N(C3CCC(=O)NC3=O)C4=O)cc2[nH]1 (stereo partly drawn) [Example 40, 2-(4-((2-(2,6-dioxopiperidin-3-yl)-1,3-dioxoisoindolin-4-yl)amino)butoxy)-N-(2-((R)-1-methylpyrrolidin-2-yl)-1H-pyrrolo[3,2-c]pyridin-6-yl)acetamide]	≤ 100	C (Category C: 25% ≤ C < 50% degradation)	B (Category B: 50% ≤ B < 75% degradation)	–
CN1CCC[C@H]1c1cc2cnc(NC(=O)c3ccc(CCCNc4cccc5c4C(=O)N(C4CCC(=O)NC4=O)C5=O)cc3)cc2[nH]1 (stereo partly drawn) [Example 37, 4-(3-{[2-(2,6-dioxopiperidin-3-yl)-1,3-dioxoisoindol-4-yl]amino}propyl)-N-{2-[(2S)-1-methylpyrrolidin-2-yl]-1H-pyrrolo[3,2-c]pyridin-6-yl}benzamide]	≤ 100	A (Category A: A ≥ 75% degradation)	A (Category A: A ≥ 75% degradation)	B (Category B: 50% ≤ B < 75% degradation)
CN1CCC[C@@H]1c1cc2cnc(NC(=O)c3ccc(-c4cnn(CCCC5CCN(c6cccc7c6CN(C6CCC(=O)NC6=O)C7=O)CC5)c4)cc3)cc2[nH]1 (stereo partly drawn) [Example 35, 4-[1-(3-{1-[2-(2,6-dioxopiperidin-3-yl)-1-oxo-3H-isoindol-4-yl]piperidin-4-yl}propyl)pyrazol-4-yl]-N-{2-[(2R)-1-methylpyrrolidin-2-yl]-1H-pyrrolo[3,2-c]pyridin-6-yl}benzamide]	≤ 100	A (Category A: A ≥ 75% degradation)	A (Category A: A ≥ 75% degradation)	A (Category A: A ≥ 75% degradation)
CN1CCC[C@@H]1c1cc2cnc(NC(=O)c3ccc(OCC#Cc4cccc5c4CN(C4CCC(=O)NC4=O)C5=O)cc3)cc2[nH]1 (stereo partly drawn) [Example 51, 4-((3-(2-(2,6-dioxopiperidin-3-yl)-1-oxoisoindolin-4-yl)prop-2-yn-1-yl)oxy)-N-(2-((R)-1-methylpyrrolidin-2-yl)-1H-pyrrolo[3,2-c]pyridin-6-yl)benzamide]	≤ 100	A (Category A: A ≥ 75% degradation)	A (Category A: A ≥ 75% degradation)	A (Category A: A ≥ 75% degradation)
CN1CCC[C@@H]1c1cc2cnc(NC(=O)c3ccc(-c4cnn(CCCC5CCN(c6cccc7c6C(=O)N(C6CCC(=O)NC6=O)C7=O)CC5)c4)cc3)cc2[nH]1 (stereo partly drawn) [Example 34, 4-[1-(3-{1-[2-(2,6-dioxopiperidin-3-yl)-1,3-dioxoisoindol-4-yl]piperidin-4-yl}propyl)pyrazol-4-yl]-N-{2-[(2R)-1-methylpyrrolidin-2-yl]-1H-pyrrolo[3,2-c]pyridin-6-yl}benzamide]	≤ 100	A (Category A: A ≥ 75% degradation)	A (Category A: A ≥ 75% degradation)	–
CN1CCC[C@@H]1c1cc2cnc(NC(=O)c3ccc(-c4ccn(CCCC#Cc5cccc6c5CN(C5CCC(=O)NC5=O)C6=O)n4)cc3)cc2[nH]1 (mixture of isomers) [Example 20, 4-(1-(5-(2-(2,6-dioxopiperidin-3-yl)-1-oxoisoindolin-4-yl)pent-4-yn-1-yl)-1H-pyrazol-3-yl)-N-(2-((R)-1-methylpyrrolidin-2-yl)-1H-pyrrolo[3,2-c]pyridin-6-yl)benzamide]	≤ 100	B (Category B: 50% ≤ B < 75% degradation)	C (Category C: 25% ≤ C < 50% degradation)	B (Category B: 50% ≤ B < 75% degradation)
CN1CCC[C@@H]1c1cc2cnc(NC(=O)c3ccc(CCC#Cc4cccc5c4n(C)c(=O)n5C4CCC(=O)NC4=O)cc3)cc2[nH]1 (stereo partly drawn) [Example 53, 4-(4-(1-(2,6-dioxopiperidin-3-yl)-3-methyl-2-oxo-2,3-dihydro-1H-benzo[d]imidazol-4-yl)but-3-yn-1-yl)-N-(2-((R)-1-methylpyrrolidin-2-yl)-1H-pyrrolo[3,2-c]pyridin-6-yl)benzamide]	≤ 100	A (Category A: A ≥ 75% degradation)	B (Category B: 50% ≤ B < 75% degradation)	A (Category A: A ≥ 75% degradation)
CN1CCC[C@@H]1c1cc2cnc(NC(=O)c3cccc(OCC#Cc4cccc5c4CN(C4CCC(=O)NC4=O)C5=O)c3)cc2[nH]1 (stereo partly drawn) [Example 58, 3-((3-(2-(2,6-dioxopiperidin-3-yl)-1-oxoisoindolin-4-yl)prop-2-yn-1-yl)oxy)-N-(2-((R)-1-methylpyrrolidin-2-yl)-1H-pyrrolo[3,2-c]pyridin-6-yl)benzamide]	≤ 100	A (Category A: A ≥ 75% degradation)	C (Category C: 25% ≤ C < 50% degradation)	B (Category B: 50% ≤ B < 75% degradation)
CN1CCC[C@@H]1c1cc2cnc(NC(=O)c3ccc(OCCC#Cc4cccc5c4CN(C4CCC(=O)NC4=O)C5=O)cc3)cc2[nH]1 (stereo partly drawn) [Example 19, 4-((4-(2-(2,6-dioxopiperidin-3-yl)-1-oxoisoindolin-4-yl)but-3-yn-1-yl)oxy)-N-(2-((R)-1-methylpyrrolidin-2-yl)-1H-pyrrolo[3,2-c]pyridin-6-yl)benzamide]	≤ 100	A (Category A: A ≥ 75% degradation)	A (Category A: A ≥ 75% degradation)	B (Category B: 50% ≤ B < 75% degradation)
